Biological target: T1, PARK7 (Homo sapiens, UniProt Q99497)
T1 sequence (Q99497 1-189): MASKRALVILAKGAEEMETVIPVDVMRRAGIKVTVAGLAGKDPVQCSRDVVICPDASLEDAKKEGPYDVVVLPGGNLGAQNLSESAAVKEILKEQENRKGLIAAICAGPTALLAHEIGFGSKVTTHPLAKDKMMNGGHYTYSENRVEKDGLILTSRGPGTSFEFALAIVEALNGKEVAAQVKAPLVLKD
Assay: High-throughput screen of the crude compound library, PARK7 fluorescence polarization (FP) assay with FP reagent JYQ-107
Format: biochemical
Settings: 1.25 µM, crude compound library; read-out: HTS FP assay %Inhibition (1.25 µM)

Q: With `N#CN1CC[C@@H](C(=O)Nc2nc3c(s2)CN(C(=O)c2ccc(S(=O)(=O)Nc4cccc(Cl)c4F)o2)CC3)C1` [compound 205] as the molecule, how does the inhibition at 1.25 µM read?
A: 72.5%

Q: For `N#CN1CC[C@@H](C(=O)Nc2nc3c(s2)CN(C(=O)C2CCCN2C(=O)c2ccncc2)CC3)C1` (stereo partly drawn) [compound 206], which inhibition at 1.25 µM is on record?
A: 50.6%

Q: `Cc1ccc(S(=O)(=O)N[C@@H](Cc2ccccc2)C(=O)N2CCc3nc(NC(=O)[C@@H]4CCN(C#N)C4)sc3C2)cc1` [compound 207] was tested. Which inhibition at 1.25 µM did it give?
A: 70%

Q: `N#CN1CC[C@@H](C(=O)Nc2nc3c(s2)CN(C(=O)c2csc(-c4ccc(Br)s4)n2)CC3)C1` [compound 208] was tested. Which inhibition at 1.25 µM did it give?
A: 86.4%

Q: Which inhibition at 1.25 µM does the source give for `N#CN1CC[C@@H](C(=O)Nc2nc3c(s2)CN(C(=O)c2cc(C4CC4)n[nH]2)CC3)C1` [compound 209] here?
A: 86.7%

Q: `N#CN1CC[C@@H](C(=O)Nc2nc3c(s2)CN(C(=O)c2cc(-c4ccncc4)on2)CC3)C1` [compound 210] was tested. Which inhibition at 1.25 µM did it give?
A: 63.9%

Q: For `N#CN1CC[C@@H](C(=O)Nc2nc3c(s2)CN(C(=O)c2ccc(N4CCCC4)c(F)c2)CC3)C1` [compound 211], which inhibition at 1.25 µM is on record?
A: 86.4%

Q: For `N#CN1CC[C@@H](C(=O)Nc2nc3c(s2)CN(C(=O)Cc2ccc(OCCOc4ccccc4)cc2)CC3)C1` [compound 212], which inhibition at 1.25 µM is on record?
A: 85.1%

Q: For `Cc1cc(C(=O)N2CCc3nc(NC(=O)[C@@H]4CCN(C#N)C4)sc3C2)c(C)n1-c1cccnc1` [compound 213], which inhibition at 1.25 µM is on record?
A: 67.7%

Q: With `N#CN1CC[C@@H](C(=O)Nc2nc3c(s2)CN(C(=O)c2csc(-c4ccncc4)n2)CC3)C1` [compound 214] as the molecule, how does the inhibition at 1.25 µM read?
A: 59.5%

Q: How did the inhibition at 1.25 µM turn out when `N#CN1CC[C@@H](C(=O)Nc2nc3c(s2)CN(C(=O)C2CN(C(=O)OCc4ccccc4)CCO2)CC3)C1` (stereo partly drawn) [compound 216] was run?
A: 76.7%

Q: How did the inhibition at 1.25 µM turn out when `N#CN1CC[C@@H](C(=O)Nc2nc3c(s2)CN(C(=O)c2cccn2-c2c(Cl)cccc2Cl)CC3)C1` [compound 218] was run?
A: 69.2%

Q: With `Cn1cc(-c2ccc(C(=O)N3CCc4nc(NC(=O)[C@@H]5CCN(C#N)C5)sc4C3)o2)cn1` [compound 220] as the molecule, how does the inhibition at 1.25 µM read?
A: 27.6%

Q: Which inhibition at 1.25 µM does the source give for `N#CN1CC[C@@H](C(=O)Nc2nc3c(s2)CN(C(=O)c2ccc(F)c(S(=O)(=O)N4CCC4)c2)CC3)C1` [compound 221] here?
A: 94.8%

Q: For `CN1C(=O)C[C@@H](C(=O)N2CCc3nc(NC(=O)[C@@H]4CCN(C#N)C4)sc3C2)[C@@H]1c1cccnc1` [compound 222], which inhibition at 1.25 µM is on record?
A: 63.8%

Q: `Cc1nc(COc2ccccc2C(=O)N2CCc3nc(NC(=O)[C@@H]4CCN(C#N)C4)sc3C2)no1` [compound 223] was tested. Which inhibition at 1.25 µM did it give?
A: 74%

Q: Which inhibition at 1.25 µM does the source give for `Cc1onc(-c2ccncc2)c1C(=O)N1CCc2nc(NC(=O)[C@@H]3CCN(C#N)C3)sc2C1` [compound 224] here?
A: 73.5%

Q: With `N#CN1CC[C@@H](C(=O)Nc2nc3c(s2)CN(C(=O)c2cccc(OCCOc4ccccc4Cl)n2)CC3)C1` [compound 225] as the molecule, how does the inhibition at 1.25 µM read?
A: 86.9%

Q: Which inhibition at 1.25 µM does the source give for `N#CN1CC[C@@H](C(=O)Nc2nc3c(s2)CN(C(=O)CC2(n4cnnn4)CCOCC2)CC3)C1` [compound 226] here?
A: 68.7%

Q: How did the inhibition at 1.25 µM turn out when `N#CN1CC[C@@H](C(=O)Nc2nc3c(s2)CN(C(=O)c2sc(N4CCCC4)nc2Cl)CC3)C1` [compound 227] was run?
A: 74%

Q: Which inhibition at 1.25 µM does the source give for `COc1ccc(CN2CCC2C(=O)N2CCc3nc(NC(=O)[C@@H]4CCN(C#N)C4)sc3C2)cc1` (stereo partly drawn) [compound 228] here?
A: 62.2%

Q: For `COCC1CCN(c2ccc(C(=O)N3CCc4nc(NC(=O)[C@@H]5CCN(C#N)C5)sc4C3)cc2)C1` (stereo partly drawn) [compound 229], which inhibition at 1.25 µM is on record?
A: 72.8%

Q: Which inhibition at 1.25 µM does the source give for `Cc1nn(-c2cccnc2)nc1C(=O)N1CCc2nc(NC(=O)[C@@H]3CCN(C#N)C3)sc2C1` [compound 230] here?
A: 62.8%

Q: How did the inhibition at 1.25 µM turn out when `Cc1nn(-c2ccccn2)c(C)c1CC(=O)N1CCc2nc(NC(=O)[C@@H]3CCN(C#N)C3)sc2C1` [compound 231] was run?
A: 67.1%

Q: For `N#CN1CC[C@@H](C(=O)Nc2nc3c(s2)CN(C(=O)c2ccnn2C2CCC2)CC3)C1` [compound 232], which inhibition at 1.25 µM is on record?
A: 76%

Q: `N#CN1CC[C@@H](C(=O)Nc2nc3c(s2)CN(C(=O)CC2(Cn4cnnn4)CCCCC2)CC3)C1` [compound 233] was tested. Which inhibition at 1.25 µM did it give?
A: 77.5%

Q: For `N#CN1CC[C@@H](C(=O)Nc2nc3c(s2)CN(C(=O)c2cn(CC4CCOC4)nn2)CC3)C1` (stereo partly drawn) [compound 234], which inhibition at 1.25 µM is on record?
A: 82.7%

Q: For `N#CN1CC[C@@H](C(=O)Nc2nc3c(s2)CN(C(=O)c2ccn(-c4ccc(C(F)(F)F)cn4)n2)CC3)C1` [compound 235], which inhibition at 1.25 µM is on record?
A: 67.4%

Q: With `N#CN1CC[C@@H](C(=O)Nc2nc3c(s2)CN(C(=O)c2sccc2S(=O)(=O)NCc2ccco2)CC3)C1` [compound 236] as the molecule, how does the inhibition at 1.25 µM read?
A: 58.7%

Q: Which inhibition at 1.25 µM does the source give for `N#CN1CC[C@@H](C(=O)Nc2nc3c(s2)CN(C(=O)c2cnn(Cn4cc(Cl)cn4)c2)CC3)C1` [compound 237] here?
A: 80%

Q: Which inhibition at 1.25 µM does the source give for `N#CN1CC[C@@H](C(=O)Nc2nc3c(s2)CN(C(=O)c2nc(OCC4CC4)ccc2Cl)CC3)C1` [compound 238] here?
A: 53.7%

Q: How did the inhibition at 1.25 µM turn out when `CC(C(=O)N1CCc2nc(NC(=O)[C@@H]3CCN(C#N)C3)sc2C1)n1ccc(C2CC2)n1` (stereo partly drawn) [compound 239] was run?
A: 67.1%

Q: With `Cn1cc(S(=O)(=O)N2CCOCC2)cc1C(=O)N1CCc2nc(NC(=O)[C@@H]3CCN(C#N)C3)sc2C1` [compound 240] as the molecule, how does the inhibition at 1.25 µM read?
A: 75.1%

Q: With `Cn1nc(CC(=O)N2CCc3nc(NC(=O)[C@@H]4CCN(C#N)C4)sc3C2)cc1C1CC1` [compound 241] as the molecule, how does the inhibition at 1.25 µM read?
A: 86.1%

Q: With `Cc1sc(-n2cnnn2)c(C(=O)N2CCc3nc(NC(=O)[C@@H]4CCN(C#N)C4)sc3C2)c1C` [compound 243] as the molecule, how does the inhibition at 1.25 µM read?
A: 61.9%

Q: For `Cc1noc(-c2ccc(C(=O)N3CCc4nc(NC(=O)[C@@H]5CCN(C#N)C5)sc4C3)cc2)n1` [compound 244], which inhibition at 1.25 µM is on record?
A: 58.5%

Q: For `N#CN1CC[C@@H](C(=O)Nc2nc3c(s2)CN(C(=O)c2cc(-c4cccc(Cl)c4)no2)CC3)C1` [compound 245], which inhibition at 1.25 µM is on record?
A: 10.9%

Q: Which inhibition at 1.25 µM does the source give for `CCOc1oc(-c2ccco2)nc1C(=O)N1CCc2nc(NC(=O)[C@@H]3CCN(C#N)C3)sc2C1` [compound 246] here?
A: 82.7%

Q: For `Cc1ccc(S(=O)(=O)NCCc2ccc(F)cc2)cc1C(=O)N1CCc2nc(NC(=O)[C@@H]3CCN(C#N)C3)sc2C1` [compound 247], which inhibition at 1.25 µM is on record?
A: 86.9%

Q: For `Cc1nc(-c2ccco2)ccc1C(=O)N1CCc2nc(NC(=O)[C@@H]3CCN(C#N)C3)sc2C1` [compound 248], which inhibition at 1.25 µM is on record?
A: 84.8%

Q: With `N#CN1CC[C@@H](C(=O)Nc2nc3c(s2)CN(C(=O)C2(CC(=O)N4CCOCC4)CCCC2)CC3)C1` [compound 249] as the molecule, how does the inhibition at 1.25 µM read?
A: 73.8%

Q: `CN(Cc1ccccc1)C(=O)N1CCC(C(=O)N2CCc3nc(NC(=O)[C@@H]4CCN(C#N)C4)sc3C2)CC1` [compound 250] was tested. Which inhibition at 1.25 µM did it give?
A: 67.7%

Q: `N#CN1CC[C@@H](C(=O)Nc2nc3c(s2)CN(C(=O)C2(NS(=O)(=O)C=Cc4ccccc4)CCCC2)CC3)C1` [compound 251] was tested. Which inhibition at 1.25 µM did it give?
A: 66.6%

Q: How did the inhibition at 1.25 µM turn out when `N#CN1CC[C@@H](C(=O)Nc2nc3c(s2)CN(C(=O)C(Cc2ccccc2)N2CCCOC2=O)CC3)C1` (stereo partly drawn) [compound 252] was run?
A: 74.6%

Q: `N#CN1CC[C@@H](C(=O)Nc2nc3c(s2)CN(C(=O)c2ccc(N4CCCS4(=O)=O)cc2)CC3)C1` [compound 253] was tested. Which inhibition at 1.25 µM did it give?
A: 85.9%

Q: For `Cc1ccc(CN2C(=O)CCC2C(=O)N2CCc3nc(NC(=O)[C@@H]4CCN(C#N)C4)sc3C2)cc1` (stereo partly drawn) [compound 254], which inhibition at 1.25 µM is on record?
A: 53.9%

Q: For `N#CN1CC[C@@H](C(=O)Nc2nc3c(s2)CN(C(=O)c2nc(C4CC4)ncc2Br)CC3)C1` [compound 255], which inhibition at 1.25 µM is on record?
A: 74%

Q: `CN1C(=O)CCC(C(=O)N2CCc3nc(NC(=O)[C@@H]4CCN(C#N)C4)sc3C2)C1c1cccs1` (stereo partly drawn) [compound 256] was tested. Which inhibition at 1.25 µM did it give?
A: 61.4%

Reference: publication PMC11129182, “Development of Inhibitors, Probes, and PROTAC Provides a Complete Toolbox to Study PARK7 in the Living Cell” (Journal of Medicinal Chemistry, 2024)
